Measured values from PubChem BioAssay (NCI).
Values joined by “and” are separate entries in the source; they are usually repeats but may differ in a detail not shown here. Identical values can stand only once.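 Five compound concentrations were applied to cells in 96-well plates for 48 hours; endpoints were derived by simple linear interpolation of the resulting dose-response curve. GI50 = concentration required for 50% inhibition of growth. TGI is the concentration that stops growth completely.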

Tests used:
Experiment in all cases: NCI tumour cell line growth inhibition, 48 h
DMS 114 small cell lung = tested on: DMS 114 small cell lung
DMS 273 small cell lung = tested on: DMS 273 small cell lung
KM20L2 colon = tested on: KM20L2 colon
M19-MEL melanoma = tested on: M19-MEL melanoma
P388 leukemia = tested on: P388 leukemia
P388/ADR leukemia = tested on: P388/ADR leukemia
SN12K1 renal = tested on: SN12K1 renal
SNB-78 CNS = tested on: SNB-78 CNS
XF 498 CNS = tested on: XF 498 CNS
LXFL 529 NSCLC = tested on: LXFL 529 NSCLC
RXF-631 renal = tested on: RXF-631 renal

Row | SMILES | TGI (DMS 114 small cell lung) | TGI (DMS 273 small cell lung) | TGI (KM20L2 colon) | TGI (M19-MEL melanoma) | TGI (P388 leukemia) | TGI (P388/ADR leukemia) | TGI (SN12K1 renal) | TGI (SNB-78 CNS) | TGI (XF 498 CNS) | TGI (LXFL 529 NSCLC) | TGI (RXF-631 renal) | GI50 (DMS 114 small cell lung) | GI50 (XF 498 CNS)
1 | CCOC(=O)C1=C(C(C)=O)CSC(c2ccccc2)=N1 | > 100 µM | > 100 µM | > 100 µM | > 100 µM | > 100 µM | > 100 µM | > 100 µM | > 100 µM | > 100 µM | – | – | – | –
2 | C=C1C(=O)OC2/C=C(\CO)C(OC(C)=O)CC(O)/C(C)=C/C(OC(=O)C(C)CC)C12 (stereo not drawn) | > 56.8 µM | 38 µM | 58.6 µM | 33 µM | – | – | – | 42.9 µM | 29.7 µM | 28.3 µM | > 100 µM | – | –
3 | C/C(=N/NC(N)=S)c1ccc2ccccc2c1 | 49.9 µM | 90.9 µM | 80.4 µM | > 100 µM | – | – | – | > 100 µM | > 100 µM | > 100 µM | – | – | –
4 | COc1cc(/C=C/C(=O)O)ccc1C(=O)O/C=C/c1ccccc1 | > 100 µM | > 100 µM | > 100 µM | > 100 µM | > 100 µM | 68.9 µM | > 100 µM | > 100 µM | > 100 µM | – | – | – | –
5 | CCN(CC)CCNc1ccc2nnn3c4ccc(OC)cc4c(=O)c1c23 | 21.2 µM | – | 20 µM | 26.3 µM | – | – | – | 25.8 µM | – | 21.4 µM | 16.3 µM | – | –
6 | CSC1CC2C(CC1(C)O)C2(C)C (stereo not drawn) | 72.1 µM and > 100 µM | > 100 µM | > 100 µM | > 100 µM | – | – | – | > 100 µM | 79.1 µM and > 100 µM | > 100 µM | – | 15.7 µM and > 100 µM | 16.4 µM and > 100 µM
7 | CCC(C(=O)O)c1ccc(OCc2ccccc2)cc1 (stereo not drawn) | > 100 µM | > 100 µM | > 100 µM | – | – | – | – | > 100 µM | > 100 µM | > 100 µM | – | – | –
8 | NC(=O)C(=O)N/N=C1/c2ccccc2CC1C1(O)C(=O)Nc2c(Cl)cc(Cl)cc21 (stereo not drawn) | > 100 µM | > 100 µM | > 100 µM | > 100 µM | – | – | – | > 100 µM | > 100 µM | – | – | – | –
9 | COc1cc(/C=C2\C(=O)N(C(=O)Cc3ccccc3)N=C2C)ccc1O | > 100 µM | > 100 µM | – | > 100 µM | – | – | – | > 100 µM | > 100 µM | – | – | – | –
10 | COc1cc2c(cc1OC)C(N(C)C)C(c1ccccc1)=C2Cl (stereo not drawn) | – | 30.9 µM | 58.6 µM | 39.1 µM | – | – | – | – | – | – | 30.5 µM | – | –
11 | CN(C)C(CN)CC1=C(CC(CN)N(C)C)CCC1 (stereo not drawn) | > 100 µM | > 100 µM | > 100 µM | > 100 µM | > 100 µM | > 100 µM | > 100 µM | > 100 µM | > 100 µM | – | – | – | –
12 | COc1ccccc1NC(=O)CC(=O)N1N=C(C)C(N=Nc2ccc(S(N)(=O)=O)cc2)C1=O (stereo not drawn) | > 100 µM | > 100 µM | > 100 µM | > 100 µM | – | – | – | > 100 µM | > 100 µM | > 100 µM | – | – | –
13 | CC(C)(C)C1=Cc2cc3cc(C(C)(C)C)[nH]c(=O)c3cc2S(=O)(=O)N1 | 44.4 µM | – | – | 40.7 µM | – | – | – | > 100 µM | – | 76.7 µM | – | – | –
14 | COc1ccc(-c2cc(=O)c3cc4c(cc3[nH]2)OCO4)c(OC)c1OC | > 100 µM | > 100 µM | > 100 µM | > 100 µM | – | – | – | > 100 µM | > 100 µM | > 100 µM | – | – | –
15 | C/C(=C\c1ccccc1)C(=O)CCN1CCOCC1 | 35.2 µM | 35.3 µM | 36.1 µM | 33.8 µM | 36.1 µM | > 55.1 µM | 32.8 µM | 35.4 µM | 33.3 µM | – | – | – | –
16 | COCOc1ccc(OC)cc1 | – | > 100 µM | > 100 µM | > 100 µM | > 100 µM | > 100 µM | > 100 µM | > 100 µM | > 100 µM | – | – | – | –
